Here are results for two molecules from patent US20220356163A1, “SMALL MOLECULE INHIBITORS OF Id PROTEINS” (MEMORIAL SLOAN KETTERING CANCER CENTER, priority 2019, published 2022).

The test system of one experiment is Id proteins. Briefly: Western blot for Id1 in HCT116 and 4T1 cells (FIGS. 7C-7D). In kind it is cell-based. The following applies: 24 hours. The protocol:
The IC50 is indicated. […] The IC50 is indicated. […] Laser-induced choroidal neovascularization (NV) was induced in mice and they were treated by intravitreal injection with DMSO, 1 or 5 μg AGX-A, or 1 or 5 μg AGX51. On day 14 the animals were euthanized and area of CNV was measured (** indicates p<0.01, *** indicates p<0.0001 by ANOVA, error bars show SEM).
Immunoblotting. For immunoblotting, cells were collected by trypsinization, washed with PBS and lysed in homogenization buffer (0.3 M sucrose, 10 mM Tris (pH 8.0), 400 mM sodium chloride, 3 mM magnesium chloride, 0.5% NP40/IGEPAL, 100 μg/mL Aprotinin+Protease inhibitor cocktail (Roche #11 836 153 001). Proteins were separated by SDS-PAGE, transferred to a membrane (LI-COR), probed with primary antibodies overnight at 4° C., and probed with secondary antibodies (LI-COR) for 1-2 hours at room temperature. Proteins were visualized using the LI-COR Odyssey Infrared Imaging detection system. The following primary antibodies were used Id1, Id2, Id3, Id4 (195-14, 9-2-8, 17-3, 82-12, respectively, all from Biocheck), Cyclin D1 (2978, Cell Signaling), Actin (A2066, Sigma), Tubulin (T4026, Sigma). Western blot quantification was carried out using channel 700 and channel 800 intensity data from Odyssey application software version 3.0.30 (LI-COR), subtracting blank values and normalizing to Tubulin.

In another experiment the test system is MDA-MB-436. Briefly: MTT assay, MDA-MB-436. In kind it is cell-based. The following applies: Homo sapiens, 24 h, MDA-MB-436, TNBC cell line, read-out: IC50 value after 24 hours of treatment. An excerpt: The 4T1 murine mammary tumor cell line and nine breast cancer cell lines representing the major breast cancer subtypes (ER+, HER2+, and TNBC) including MDA-MB-157, MDA-MB-436, MDA-MB-231, MDA-MB-453, MDA-MB-361, BT-474, SK-BR-3, MCF-7 and T47-D will be grown in RPMI or DMEM (Dulbecco's Modified Eagle Medium) media supplemented with 10% FBS (fetal bovine serum), 1% penicillin-streptomycin and 1% L-Glutamine. Patient derived xenograft cell lines BR7, BR11, and IBT will be established directly from breast cancer bone metastases specimens surgically resected from patients with informed consent. BR7 and BR11 specimens will be obtained from ER positive (HER2 negative and PR negative) metastatic breast cancer patients, while the IBT specimen will be obtained from a metastatic, triple negative breast cancer patient. Fresh tumor tissues will be quickly washed with ice cold PBS and minced into about 1-3 mm pieces in MEM medium (without FBS) using sterile razor blades. […] The cells will be treated with either 100 μM DMSO, AGX51, or a compound of the present technology such as AGX-A. The cell morphology and growth will be monitored daily for 1 week by microscopy for changes in morphology or cell death. […] Absorbance will then measured at 570 nm using a plate reader (Synergy 2, BioTek). […]
On the technique in general: Tetrazolium dyes change colour on reduction, which living cells bring about.

“Also recorded” adds a separate entry of the source.

Consider `COc1ccccc1C(CCNCc1ccccc1)c1ccc(OC(C)C)cc1` (centres unmarked) [AGX-A, N-benzyl-3-(4-isopropoxyphenyl)-3-(2-methoxyphenyl)propan-1-anine], for which, in the experiment on Id proteins, the “Id protein levels in cells, concentration needed relative to AGX51” value is “reduced Id protein levels at lower concentrations than AGX51; also recorded: degraded Id proteins in cells at lower concentrations than AGX51”. For orientation: IC50 means the concentration needed to halve the response being measured. With `CCC(=O)N(CCC(c1ccc2c(c1)OCO2)c1ccccc1OC)Cc1ccccc1` (racemic) [AGX51, N-(3-(benzo[d][1,3]dioxol-5-yl)-3-(2-methoxyphenyl)propyl)-N-benzylpropionamide], in the experiment with MDA-MB-436, the IC50 came out at 30.9 µM.
